Measured values from article PMC6366430 (Journal of Enzyme Inhibition and Medicinal Chemistry, 2019).
“And” between values parts separate entries of the source, which are not always exact repeats. Identical values can stand only once. Like-named read-outs stand apart in the source and are kept apart here.

Legend:
BuChE from horse serum = biological target: T1, BuChE from horse serum (Equus caballus, UniProt P81908); test: biochemical; conditions: mean ± SD of triplicate independent experiments
T1 construct: equine serum butyrylcholinesterase (EqBuChE); from tissue; host or cells: equine (horse) serum
Description: (§1) Activity of enzymes and inhibition kinetics were determined using a Bio-Rad iMark microplate reader based on a modification of the Ellman method.[14] ^, [15] Compounds were dissolved in DMSO. The assay solution which contained 60 µL 5,5′-Dithiobis(2-nitrobenzoic acid) (DTNB) at 1.1 mM, 30 µL AChE/BuChE at 0.20 U/mL (initial concentration) and 150 µL tested compound solution with different concentrations. Absorbance was then recorded at λ = 415 nm. […]
(§2) serially diluted. Negative (without treatment) and vehicle (DMSO, final concentration 0.2% v/v for AChE and 0.8% v/v for BuChE) controls were kept for reference.
(§3) Following, there were added 60 μL of 5,5′-Dithiobis(2-nitrobenzoic acid) (DTNB, Ellman's reagent) at 1.1 mM and 30 μL of electric eel acetylcholinesterase (EeAChE) or equine serum butyrylcholinesterase (EqBuChE) at 0.20 U/mL in the presence of 1 mg/mL bovine serum albumin (BSA). Absorbance was then recorded using an iMark plate reader (Bio-Rad) equipped with a λ = 415 nm light filter and this measure used as […]
(§4) acetylthiocholine iodide (ACTI) or S-butyrylthiocholine iodide (BCTI) were added and the absorbance recorded after a 10-minute incubation at 30 °C at λ = 415 nm for 3 times within 30 seconds. Enzyme activity was calculated as percentage of untreated control discounting the blank reference. The final inhibitor concentration ranged from 100 – 0.00001 μM for AChE (dillution factor = 10) and from 400 – 0.1 μM for BuChE (dillution factor = 4). IC50 values were calculated on Graphpad Prism 7.0 using the non-linear regression model for dose-response inhibition. […]

AChE from electric eel = biological target: T2, AChE from electric eel (Electrophorus electricus, UniProt O42275); test: biochemical; conditions: for IC50: AChE from electric eel, mean ± SD of triplicate independent experiments
T2 construct: purchased Sigma-Aldrich
Description: as §1, §2, §3, §4

[1] = test system: N2a cells (neuroblastoma); test: N2a neuroblastoma cell viability, MTT assay; assay type: cell-based, murine; conditions: for Neuroblastoma cell viability, MTT reduction relative to control cells, Mean ± SD: 48 h; for cytotoxicity against N2a cells (in words): 48 h incubation, maximum tested concentration 50 µM
Description: N2a cells were cultured in Dulbecco’s modified Eagle’s medium supplemented with 10% fetal bovine serum and 0.1% gentamicin in a 5% CO2 atmosphere. N2a cells were transferred to a 96-well plate (∼10,000 cells/cm^2) and incubated for 24 h, before treatment with the compounds at 10 or 50 µM. Cell viability was evaluated by MTT (3-[4,5-dimethylthiazol-2-yl]-2,5-diphenyl tetrazolium bromide) assay.
Murine neuroblastoma cell (N2a) culture and cell viability assay.
N2a cells were cultured in Dulbecco’s modified Eagle’s medium supplemented with 10% fetal bovine serum and 0.1% gentamicin in a 5% CO2 atmosphere. N2a cells were transferred to a 96-well plate (~10,000 cells/cm2) and incubated for 24 h, before treatment with the compounds at 10 or 50 µM. After being treated, cells were grown for 48 hours. Cell viability was evaluated by MTT (3-[4,5-dimethylthiazol-2-yl]-2,5-diphenyl tetrazolium bromide) assay. MTT was added to a final concentration of 0.5 mg/mL into the wells (samples and controls), and the plates were incubated for 4 h at 37 °C. After, all the media was removed and produced formazan crystals were solubilized with DMSO and quantified by reading the OD at 570 nm in a 96-well plate reader (SpectraMax® Paradigm®, Molecular Devices). Means and standard deviations were calculated from triplicates.

[2] = Ferric reducing ability of plasma (FRAP) antioxidant assay; conditions: 50 µM final concentration, 10 min at 37 °C
Description: A 0.5 ml solution of coumarin compounds in methanol (50 µM final concentration) was mixed with 4.5 ml of the FRAP reagent. After 10 min of incubation at 37 °C, absorbance at 593 nm was measured using methanol as blank.[20] ^, [21] The calibration curve was prepared with quercetin and the results expressed as: antioxidant index based on quercetine (Q) (mmol Q/mol). The analyses were performed in triplicate.
FRAP solution was freshly prepared by mixing 25 mL acetate buffer (0.30 M) at pH
3.6, 2.5 mL ferric chloride (20 mM) and 2.5 mL 2,4,6-tris(2-pyridyl)-s-triazine (10
mM). In a test tube containing 4.5 mL of FRAP reagent were added 0.5 mL of 500 µM
solutions of 4a-d, 5a-c and 6a-c (in methanol). After a 10-minute incubation at 37°C the
absorbance was recorded in a spectrophotometer at λ = 593 nm using methanol as blank
reference11. A standard curve was obtained by plotting the absorbance read after
of quercetin (Q) equivalent to mol of inhibitor (mmol Q/mol), obtained in triplicates.

[3] = biological target: T3, equine serum butyrylcholinesterase (EqBuChE) (Equus caballus, UniProt P81908); test: biochemical; assay type: biochemical; conditions: for inhibition type in BuChE: Lineweaver–Burk; for Ki’ (non-competitive inhibition constant) on BuChE / Ki: ± SD of triplicate; for Ki: read-out: Ki (competitive inhibition constant) on BuChE
T3 construct: equine serum butyrylcholinesterase (EqBuChE); from tissue; host or cells: equine (horse) serum
Description: as §1
(§5) The enzymatic kinetic of cholinesterase inhibition was determined according to adapted Ellman's method1. All of the solution were prepared in 0.02 M tris-HCl buffer (pH = 7.5), stock solutions of test compounds prepared in DMSO (50 mM), and the experiment conducted in triplicate. To a flat-bottom 96-well transparent plate were added 150μL of treatment solutions with inhibitors 4d and 6a at two different concentrations (Table 2) distributed in eight sets of triplicates each. Eight sets of untreated triplicates were used as negative control. Following, there were added 60 μL of 5,5′-Dithiobis(2-nitrobenzoic acid) (DTNB, Ellman's reagent) at 1.1 mM and 30 μL of electric eel acetylcholinesterase (EeAChE) or equine serum butyrylcholinesterase (EqBuChE) at 0.20 U/mL in presence of 1 mg/mL bovine serum albumin (BSA).
(§6) Absorbance was then recorded using an iMark plate reader (Bio-Rad) equipped with a λ = 415 nm light filter and this measure used as a blank reference. After 10-minute incubation at room temperature, 24 μL of acetylthiocholine iodide (ACTI) or S- […]
(§7) the absorbance recorded after incubation for 0, 5, 10, 15 and 20 minutes at room temperature at λ = 415 nm. The Lineweaver–Burk reciprocal plots were obtained by […]
(§8) plotting a 1/velocity versus 1/[substrate] graph for two different inhibitor concentrations […]
(§9) behavior, in ways the region to where the curves converge determine the type of inhibition observed. Ki, Ki' (competitive and noncompetitive inhibition constants respectively), Km (Michaelis-Menten constant) and Vmax values were calculated with Graphpad Prism 7.0 using the non-linear regression models for enzyme kinetics - inhibiton and enzyme kinects - substrate vs. velocity.

[4] = biological target: T4, electric eel acetylcholinesterase (EeAChE) (Electrophorus electricus, UniProt O42275); test: biochemical; assay type: biochemical; conditions: for inhibition type in AChE: Lineweaver–Burk; for Ki’ (non-competitive inhibition constant) on AChE / Ki: ± SD of triplicate; for Ki: read-out: Ki (competitive inhibition constant) on AChE
T4 construct: purchased Sigma-Aldrich
Description: as §1, §5, §6, §7, §8, §9

T1 sequence (P81908 whole entry): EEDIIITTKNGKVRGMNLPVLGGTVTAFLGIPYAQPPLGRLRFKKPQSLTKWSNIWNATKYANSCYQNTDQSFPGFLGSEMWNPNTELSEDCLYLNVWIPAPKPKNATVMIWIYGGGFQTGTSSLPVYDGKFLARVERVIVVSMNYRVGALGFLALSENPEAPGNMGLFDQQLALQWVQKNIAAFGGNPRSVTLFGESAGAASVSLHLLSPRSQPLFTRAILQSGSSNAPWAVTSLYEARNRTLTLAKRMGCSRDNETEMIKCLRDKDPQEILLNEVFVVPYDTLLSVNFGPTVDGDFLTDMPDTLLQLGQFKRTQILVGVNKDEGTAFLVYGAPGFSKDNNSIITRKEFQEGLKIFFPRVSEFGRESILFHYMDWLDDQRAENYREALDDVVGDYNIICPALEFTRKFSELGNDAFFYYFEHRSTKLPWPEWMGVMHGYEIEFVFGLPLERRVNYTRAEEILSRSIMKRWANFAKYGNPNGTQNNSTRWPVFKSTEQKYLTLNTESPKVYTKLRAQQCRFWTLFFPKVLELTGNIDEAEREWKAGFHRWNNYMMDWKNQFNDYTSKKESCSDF
T3 sequence (P81908 whole entry): as above
T2 sequence (O42275 24-633): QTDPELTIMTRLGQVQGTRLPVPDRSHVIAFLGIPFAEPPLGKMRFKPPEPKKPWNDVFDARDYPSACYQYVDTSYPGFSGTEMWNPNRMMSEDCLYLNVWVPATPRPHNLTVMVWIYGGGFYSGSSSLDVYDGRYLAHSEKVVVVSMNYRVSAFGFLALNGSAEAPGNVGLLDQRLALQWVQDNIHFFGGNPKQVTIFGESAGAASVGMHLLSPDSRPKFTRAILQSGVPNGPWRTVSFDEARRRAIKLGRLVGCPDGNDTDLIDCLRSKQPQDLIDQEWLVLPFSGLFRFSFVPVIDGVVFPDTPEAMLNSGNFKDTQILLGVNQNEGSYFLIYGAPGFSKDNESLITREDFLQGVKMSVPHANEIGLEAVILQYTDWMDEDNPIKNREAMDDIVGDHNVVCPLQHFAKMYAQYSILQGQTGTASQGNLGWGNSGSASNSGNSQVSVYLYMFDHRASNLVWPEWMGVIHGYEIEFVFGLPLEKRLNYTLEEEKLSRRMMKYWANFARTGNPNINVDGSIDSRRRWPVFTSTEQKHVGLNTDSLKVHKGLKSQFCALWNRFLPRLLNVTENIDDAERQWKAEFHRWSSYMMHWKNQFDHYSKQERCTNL
T4 sequence (O42275 24-633): as above

## O=c1oc2cc(OCCN3CCCCC3)ccc2cc1Br [Compound 4a]
BuChE from horse serum
  IC50: 8.37 ± 0.167 µM
AChE from electric eel; read-out: IC50(μM)±SD AChE
  IC50: 0.18 ± 0.009 µM
AChE from electric eel
  SI (selectivity index, BuChE IC50/AChE IC50): 47
[1]; 10 µM
  Neuroblastoma cell viability, MTT reduction relative to control cells, Mean ± SD: 89.16 ± 11.28%
[1]; 50 µM
  Neuroblastoma cell viability, MTT reduction relative to control cells, Mean ± SD: 103.2 ± 13.68%
[1]
  cytotoxicity against N2a cells (in words): not cytotoxic

## CN(C)c1ccc(-c2cc3ccc(OCCCN4CCCCC4)cc3oc2=O)cc1 [Compound 6b]
BuChE from horse serum
  IC50: 7.27 ± 0.273 µM
AChE from electric eel; read-out: IC50(μM)±SD AChE
  IC50: 0.33 ± 0.011 µM
AChE from electric eel
  SI (selectivity index, BuChE IC50/AChE IC50): 22
[2]
  FRAP value, antioxidant index based on quercetine (Q): 2.42 ± 0.19 mmol Q/mol
[1]; 10 µM
  Neuroblastoma cell viability, MTT reduction relative to control cells, Mean ± SD: 84.11 ± 11.1%
[1]; 50 µM
  Neuroblastoma cell viability, MTT reduction relative to control cells, Mean ± SD: 16.79 ± 8.41%
[1]
  cytotoxicity against N2a cells (in words): increase in toxicity

## O=c1oc2cc(OCCCN3CCCCC3)ccc2cc1-c1ccccc1 [Compound 5b]
BuChE from horse serum
  IC50: 1.86 ± 0.024 µM
AChE from electric eel; read-out: IC50(μM)±SD AChE
  IC50: 0.24 ± 0.014 µM
AChE from electric eel
  SI (selectivity index, BuChE IC50/AChE IC50): 8
[1]; 10 µM
  Neuroblastoma cell viability, MTT reduction relative to control cells, Mean ± SD: 83.55 ± 6.58%
[1]; 50 µM
  Neuroblastoma cell viability, MTT reduction relative to control cells, Mean ± SD: 57.06 ± 8.72%
[1]
  cytotoxicity against N2a cells (in words): increase in toxicity

## O=c1oc2cc(OCCCN3CCCCC3)ccc2cc1Br [Compound 4b]
BuChE from horse serum
  IC50: 15.87 ± 0.007 µM
AChE from electric eel; read-out: IC50(μM)±SD AChE
  IC50: 0.37 ± 0.008 µM
AChE from electric eel
  SI (selectivity index, BuChE IC50/AChE IC50): 42
[1]; 10 µM
  Neuroblastoma cell viability, MTT reduction relative to control cells, Mean ± SD: 93.34 ± 8.19%
[1]; 50 µM
  Neuroblastoma cell viability, MTT reduction relative to control cells, Mean ± SD: 87.60 ± 4.39%

## O=c1oc2cc(OCCCCCN3CCCCC3)ccc2cc1-c1ccccc1 [Compound 5c]
BuChE from horse serum
  IC50: 0.9 ± 0.001 µM
AChE from electric eel; read-out: IC50(μM)±SD AChE
  IC50: 0.45 ± 0.036 µM
AChE from electric eel
  SI (selectivity index, BuChE IC50/AChE IC50): 2
[1]; 10 µM
  Neuroblastoma cell viability, MTT reduction relative to control cells, Mean ± SD: 117.4 ± 4.86%
[1]; 50 µM
  Neuroblastoma cell viability, MTT reduction relative to control cells, Mean ± SD: 13.47 ± 1.19%
[1]
  cytotoxicity against N2a cells (in words): increase in toxicity

## O=c1oc2cc(OCCN3CCCCC3)ccc2cc1-c1ccccc1 [Compound 5a]
BuChE from horse serum
  IC50: 2.5 ± 0.177 µM
AChE from electric eel; read-out: IC50(μM)±SD AChE
  IC50: 0.14 ± 0.009 µM
AChE from electric eel
  SI (selectivity index, BuChE IC50/AChE IC50): 18
[1]; 10 µM
  Neuroblastoma cell viability, MTT reduction relative to control cells, Mean ± SD: 98.37 ± 8.92%
[1]; 50 µM
  Neuroblastoma cell viability, MTT reduction relative to control cells, Mean ± SD: 105.5 ± 14.93%
[1]
  cytotoxicity against N2a cells (in words): not cytotoxic

## O=c1oc2cc(OCCCCN3CCCCC3)ccc2cc1Br [Compound 4c]
BuChE from horse serum
  IC50: 4.92 ± 0.095 µM
AChE from electric eel; read-out: IC50(μM)±SD AChE
  IC50: 0.55 ± 0.01 µM
AChE from electric eel
  SI (selectivity index, BuChE IC50/AChE IC50): 9
[1]; 10 µM
  Neuroblastoma cell viability, MTT reduction relative to control cells, Mean ± SD: 94.43 ± 4.28%
[1]; 50 µM
  Neuroblastoma cell viability, MTT reduction relative to control cells, Mean ± SD: 88.88 ± 19.01%

## O=c1oc2cc(OCCCCCN3CCCCC3)ccc2cc1Br [Compound 4d]
[3]
  inhibition type in BuChE: mixed-type inhibition
  Ki’ (non-competitive inhibition constant) on BuChE: 6.621 ± 0.322 µM
  Ki: 2.13 ± 0.148 µM
[3]; inhibitor 0.1 μM (so in the source)
  Vmax on BuChE: 5.791 ± 0.185 µM/min
[3]; inhibitor 0.2 μM (so in the source)
  Vmax on BuChE: 4.669 ± 0.229 µM/min
[4]
  inhibition type in AChE: mixed-type inhibition
  Ki’ (non-competitive inhibition constant) on AChE: 0.15735 ± 0.004674 µM
  Ki: 0.0213 ± 0.000816 µM
[4]; inhibitor 0.1 μM
  Vmax on AChE: 2.209 ± 0.060 µM/min
[4]; inhibitor 0.2 μM
  Vmax on AChE: 1.752 ± 0.198 µM/min
BuChE from horse serum
  IC50: 5.01 ± 0.253 µM
AChE from electric eel; read-out: IC50(μM)±SD AChE
  IC50: 0.14 µM and 0.15 µM
AChE from electric eel
  SI (selectivity index, BuChE IC50/AChE IC50): 33
[1]; 10 µM
  Neuroblastoma cell viability, MTT reduction relative to control cells, Mean ± SD: 80.10 ± 7.27%
[1]; 50 µM
  Neuroblastoma cell viability, MTT reduction relative to control cells, Mean ± SD: 62.11 ± 10.09%

## CN(C)c1ccc(-c2cc3ccc(OCCCCCN4CCCCC4)cc3oc2=O)cc1 [Compound 6c]
BuChE from horse serum
  IC50: 3.85 ± 0.19 µM
AChE from electric eel; read-out: IC50(μM)±SD AChE
  IC50: 0.92 µM and 0.96 µM
AChE from electric eel
  SI (selectivity index, BuChE IC50/AChE IC50): 4
[2]
  FRAP value, antioxidant index based on quercetine (Q): 2.77 ± 0.00 mmol Q/mol
[1]; 10 µM
  Neuroblastoma cell viability, MTT reduction relative to control cells, Mean ± SD: 59.04 ± 8.21%
[1]; 50 µM
  Neuroblastoma cell viability, MTT reduction relative to control cells, Mean ± SD: 10.09 ± 3.09%
[1]
  cytotoxicity against N2a cells (in words): increase in toxicity

## CN(C)c1ccc(-c2cc3ccc(OCCN4CCCCC4)cc3oc2=O)cc1 [Compound 6a]
[3]
  inhibition type in BuChE: mixed-type inhibition
  Ki’ (non-competitive inhibition constant) on BuChE: 7.376 ± 0.558 µM
  Ki: 2.58 ± 0.236 µM
[3]; inhibitor 0.01 μM (so in the source)
  Vmax on BuChE: 4.837 ± 0.399 µM/min
[3]; inhibitor 0.03 μM (so in the source)
  Vmax on BuChE: 3.224 ± 0.284 µM/min
[4]
  Ki’ (noncompetitive) against AChE: 0.010 µM
  inhibition type in AChE: mixed-type inhibition
  Ki’ (non-competitive inhibition constant) on AChE: 0.010499 ± 0.000438 µM
  Ki: 0.00161 ± 6.6e-05 µM
[4]; inhibitor 0.01 μM
  Vmax on AChE: 1.762 ± 0.128 µM/min
[4]; inhibitor 0.03 μM
  Vmax on AChE: 1.254 ± 0.043 µM/min
BuChE from horse serum
  IC50: 6.73 ± 0.04 µM
AChE from electric eel
  SI (selectivity index, BuChE IC50/AChE IC50): 354
AChE from electric eel; IC50(μM)±SD AChE
  IC50: 0.02 ± 0.001 µM
[2]
  FRAP value, antioxidant index based on quercetine (Q): 7.49 ± 0.61 mmol Q/mol
[1]; 10 µM
  Neuroblastoma cell viability, MTT reduction relative to control cells, Mean ± SD: 92.15 ± 43.03%
[1]; 50 µM
  Neuroblastoma cell viability, MTT reduction relative to control cells, Mean ± SD: 115.9 ± 4.28%
[1]
  cytotoxicity against N2a cells (in words): not cytotoxic
